Source: patent US9307768B2, “Synergistic combination of a flurochloridone compound and IPBC for dry film protection” (priority 2013, dated 2016)

Key:
[1] = test system: Chlorella sp. ATCC 7516; assay: Algal efficacy testing of dry paint film (modified ASTM 5589, 6-well plates); type: cell-based; details: 3 weeks; for Total conc: total biocide concentration in paint reaching pass level (at least 75% inhibition)
Method: (§1) Slurries containing 33% antimicrobial active ingredient (flurochloridone) were post added to a white, acrylic/silicone based outdoor paint free of biocides to give a total active ingredient concentration of 10000 and 1000 ppm respectively. ROCIMA™ 250 (40% IPBC) was post added to a white, acrylic/silicone based outdoor paint free of biocides to give a total active ingredient concentration of 10000 and 1000 ppm respectively. These paints were then diluted with an antimicrobial free acrylic/silicone based paint and mixed to prepare targeted concentrations of antimicrobial compounds for the testing. The total biocides concentrations tested were 125, 250, 500, 1000, 2000 and 5000 ppm. After biocides addition or dilution, the paints were mixed 90 seconds with the horse power shaker (AXEL 75M3372/ Agitateur SO-10MI) until uniformity was achieved. Paints containing different antimicrobial compounds at the same levels were mixed together in order to obtain the desired ratio of antimicrobial compounds. After one day, the paints were applied to Schleicher & Schuell filter paper at 280 μm wet film thickness and dried for 3 days at room temperature avoiding direct exposure to sunlight. Square discs (1.6 cm×1.6 cm) were cut out from each panel and were used as the substrate for algal efficacy tests. This sample size allowed for an agar border when the sample disc was placed into the well of the test plate.
(§2) Algal efficacy was tested according to modified ASTM 5589 which is a standard accelerated test method for determining resistance of various coatings (including paints) to algal defacement. To accommodate for high-throughput screening, this method was scaled down from petri dishes to 6-well plates. Bold Modified Basal Freshwater Nutrient Solution was used as growth medium. A single coated filter paper coupon was placed with a pair of sterile forceps at the center of the agar plug (on top) with the painted surface facing upwards. Algal inoculums were prepared by mixing equal concentrations (1×10^6 cfu/ml) and equal volumes of exponentially growing algae cultures.
(§3) Each well that contains a tested coupon was inoculated with 1750 μl of algal suspensions (1×10^6 cfu/ml) making sure that the whole surface (paint film as well as the agar surrounding it) was evenly covered. The plates were incubated at room temp (21° C.-25° C.) with cyclic exposure to light and dark phases, for a period of three weeks. The total area inhibited was evaluated at the end of each week according to percent area covered in 5% increments.
(§4) At the end of the three week incubation period, the samples were scored for percent inhibition regarding color intensity compared to the blank sample.
(§5) The SI is calculated based on F. C. Kull et.
(§6) The minimal targeted inhibition was set at 75%, meaning a coupon with at least 75% algal growth inhibition was considered as a pass.

[2] = test system: Stichococcus bacillaris SAG 379-1a; assay: as above; type: cell-based; details: 3 weeks; for Total conc: total biocide concentration in paint reaching pass level (at least 75% inhibition)
Method: as §1, §2, §3, §4, §5, §6

| Structure (SMILES) | inhibition at 5000 ppm ([1]; 504 h, total conc 5000 ppm) [%] | Total conc [1] [ppm] | inhibition at 5000 ppm ([2]; Stichococcus bacillaris, 504 h, total conc 5000 ppm) [%] | Total conc [2] [ppm] | % inhibition ([1]; total conc 2000 ppm) [%] | % inhibition ([2]; total conc 2000 ppm) [%] |
| --- | --- | --- | --- | --- | --- | --- |
| O=C1C(Cl)C(CCl)CN1c1cccc(C(F)(F)F)c1 (centres unmarked) [Flurochloridone, 3-chloro-4-(chloromethyl)-1-[3-(trifluoromethyl)phenyl]-2-pyrrolidinone] | 85 | 5000 | 90 | 5000 |  |  |
| CCCCNC(=O)OCC#CI [IPBC, 3-Iodo-2-propynyl-butylcarbamate] |  | 2000 |  | 2000 | 85 | 90 |
